Measurements as given in article PMC10866072, “Design, synthesis, molecular modelling and biological evaluation of novel 6-amino-5-cyano-2-thiopyrimidine derivatives as potent anticancer agents against leukemia and apoptotic inducers” (Journal of Enzyme Inhibition and Medicinal Chemistry, 2024).

Experiments:
[1] = system: CCRF-CEM; assay type: cell-based; settings: Homo sapiens, one dose 10^-5 M, 48 h
[2] = system: HL-60(TB); assay type: cell-based; settings: Homo sapiens, one dose 10^-5 M, 48 h
[3] = system: K-562; assay type: cell-based; settings: Homo sapiens, K562, one dose 10^-5 M, 48 h
[4] = system: MOLT-4; assay type: cell-based; settings: Homo sapiens, one dose 10^-5 M, 48 h, read-out: % growth
[5] = system: RPMI-8226; assay type: cell-based; settings: Homo sapiens, one dose 10^-5 M, 48 h
[6] = system: SR; assay type: cell-based; settings: Homo sapiens, one dose 10^-5 M, 48 h
[7] = system: A549/ATCC; assay type: cell-based; settings: Homo sapiens, one dose 10^-5 M, 48 h
[8] = system: EKVX; assay type: cell-based; settings: Homo sapiens, one dose 10^-5 M, 48 h
[9] = system: HOP-62; assay type: cell-based; settings: Homo sapiens, one dose 10^-5 M, 48 h
[10] = system: HOP-92; assay type: cell-based; settings: Homo sapiens, one dose 10^-5 M, 48 h
[11] = system: NCI-H226; assay type: cell-based; settings: Homo sapiens, one dose 10^-5 M, 48 h
[12] = system: NCI-H23; assay type: cell-based; settings: Homo sapiens, one dose 10^-5 M, 48 h, read-out: % growth
[13] = system: NCI-H460; assay type: cell-based; settings: Homo sapiens, one dose 10^-5 M, 48 h, read-out: % growth
[14] = system: NCI-H522; assay type: cell-based; settings: Homo sapiens, one dose 10^-5 M, 48 h
[15] = system: COLO 205; assay type: cell-based; settings: Homo sapiens, one dose 10^-5 M, 48 h
[16] = system: HCC-2998; assay type: cell-based; settings: Homo sapiens, one dose 10^-5 M, 48 h
[17] = system: HCT-116; assay type: cell-based; settings: Homo sapiens, one dose 10^-5 M, 48 h, read-out: % growth
[18] = system: HCT-15; assay type: cell-based; settings: Homo sapiens, one dose 10^-5 M, 48 h, read-out: % growth
[19] = system: HT29; assay type: cell-based; settings: Homo sapiens, HT-29, one dose 10^-5 M, 48 h
[20] = system: KM12; assay type: cell-based; settings: Homo sapiens, one dose 10^-5 M, 48 h
[21] = system: SW-620; assay type: cell-based; settings: Homo sapiens, one dose 10^-5 M, 48 h
[22] = system: SF-268; assay type: cell-based; settings: Homo sapiens, one dose 10^-5 M, 48 h, read-out: % growth
[23] = system: SF-295; assay type: cell-based; settings: Homo sapiens, one dose 10^-5 M, 48 h
[24] = system: SF-539; assay type: cell-based; settings: Homo sapiens, one dose 10^-5 M, 48 h
[25] = system: SNB-19; assay type: cell-based; settings: Homo sapiens, one dose 10^-5 M, 48 h, read-out: % growth
[26] = system: SNB-75; assay type: cell-based; settings: Homo sapiens, one dose 10^-5 M, 48 h
[27] = system: U251; assay type: cell-based; settings: Homo sapiens, U-251, one dose 10^-5 M, 48 h
[28] = system: LOX IMVI; assay type: cell-based; settings: Homo sapiens, one dose 10^-5 M, 48 h, read-out: % growth
[29] = system: MALME-3M; assay type: cell-based; settings: Homo sapiens, one dose 10^-5 M, 48 h
[30] = system: M14; assay type: cell-based; settings: Homo sapiens, one dose 10^-5 M, 48 h
[31] = system: MDA-MB-435; assay type: cell-based; settings: Homo sapiens, one dose 10^-5 M, 48 h, read-out: % growth
[32] = system: SK-MEL-2; assay type: cell-based; settings: Homo sapiens, one dose 10^-5 M, 48 h
[33] = system: SK-MEL-28; assay type: cell-based; settings: Homo sapiens, one dose 10^-5 M, 48 h
[34] = system: SK-MEL-5; assay type: cell-based; settings: Homo sapiens, one dose 10^-5 M, 48 h, read-out: % growth
[35] = system: UACC-257; assay type: cell-based; settings: Homo sapiens, one dose 10^-5 M, 48 h
[36] = system: UACC-62; assay type: cell-based; settings: Homo sapiens, one dose 10^-5 M, 48 h
[37] = system: IGROV1; assay type: cell-based; settings: Homo sapiens, IGROV-1, one dose 10^-5 M, 48 h, read-out: % growth
[38] = system: OVCAR-3; assay type: cell-based; settings: Homo sapiens, one dose 10^-5 M, 48 h
[39] = system: OVCAR-4; assay type: cell-based; settings: Homo sapiens, one dose 10^-5 M, 48 h
[40] = system: OVCAR-5; assay type: cell-based; settings: Homo sapiens, one dose 10^-5 M, 48 h
[41] = system: OVCAR-8; assay type: cell-based; settings: Homo sapiens, one dose 10^-5 M, 48 h
[42] = system: NCI/ADR-RES; assay type: cell-based; settings: Homo sapiens, one dose 10^-5 M, 48 h
[43] = system: SK-OV-3; assay type: cell-based; settings: Homo sapiens, one dose 10^-5 M, 48 h
[44] = system: 786-0; assay type: cell-based; settings: Homo sapiens, one dose 10^-5 M, 48 h
[45] = system: A498; assay type: cell-based; settings: Homo sapiens, one dose 10^-5 M, 48 h
[46] = system: ACHN; assay type: cell-based; settings: Homo sapiens, one dose 10^-5 M, 48 h
[47] = system: CAKI-1; assay type: cell-based; settings: Homo sapiens, CAKI-1, 48 h, one dose 10^-5 M, 48 h
[48] = system: SN12C; assay type: cell-based, human; settings: Homo sapiens, one dose 10^-5 M, 48 h
[49] = system: TK-10; assay type: cell-based; settings: Homo sapiens, one dose 10^-5 M, 48 h
[50] = system: UO-31; assay type: cell-based; settings: Homo sapiens, UO-31, 48 h, one dose 10^-5 M, 48 h
[51] = system: PC-3; assay type: cell-based; settings: Homo sapiens, one dose 10^-5 M, 48 h
[52] = system: DU-145; assay type: cell-based; settings: Homo sapiens, one dose 10^-5 M, 48 h
[53] = system: MCF7; assay type: cell-based; settings: Homo sapiens, one dose 10^-5 M, 48 h, read-out: % growth
[54] = system: MDA-MB-231/ATCC; assay type: cell-based; settings: Homo sapiens, one dose 10^-5 M, 48 h
[55] = system: HS 578T; assay type: cell-based; settings: Homo sapiens; one dose 10^-5 M, 48 h; HS 578T; read-out: % growth
[56] = system: BT-549; assay type: cell-based; settings: Homo sapiens, one dose 10^-5 M, 48 h
[57] = system: T-47D; assay type: cell-based; settings: Homo sapiens, T47D, one dose 10^-5 M, 48 h, read-out: % growth
[58] = system: MDA-MB-468; assay type: cell-based; settings: Homo sapiens, one dose 10^-5 M, 48 h
[59] = system: full NCI 60 cell lines panel

For CN(C)c1ccc(-c2nc(S)nc(N)c2C(=N)NN=Cc2ccc(Br)cc2)cc1 [Compound 4e, 4-amino-N'-[(4-bromophenyl)methylene]-6-[4-(dimethylamino)phenyl]-2-mercapto pyrimidine-5-carboximidohydrazide], which % cell growth at 10 µM [1] is on record?
The % cell growth at 10 µM was 88.8%.

And the % growth at 10 µM [2]?
Its % growth at 10 µM is 91.6%.

And the % growth at 10 µM [3]?
The % growth at 10 µM was 99.6%.

What about the activity at 10 µM [4] of the same molecule?
Its activity at 10 µM is 103%.

And the % growth at 10 µM [5]?
The % growth at 10 µM was 84.4%.

What about the percent cell growth at 10 µM [6] of the same molecule?
Its percent cell growth at 10 µM is 91.5%.

What about the % growth at 10 µM [7] of the same molecule?
The % growth at 10 µM was 108%.

What about the % cell growth at 10 µM [8] of the same molecule?
Its % cell growth at 10 µM is 98.6%.

What about the % growth at 10 µM [9] of the same molecule?
Its % growth at 10 µM is 108%.

What about the % growth at 10 µM [10] of the same molecule?
The % growth at 10 µM was 112%.

And the % growth at 10 µM [11]?
The % growth at 10 µM was 95.7%.

What about the activity at 10 µM [12] of the same molecule?
Its activity at 10 µM is 99.3%.

And the activity at 10 µM [13]?
The activity at 10 µM was 107%.

And the % growth at 10 µM [14]?
Its % growth at 10 µM is 98.5%.

What about the % growth at 10 µM [15] of the same molecule?
Its % growth at 10 µM is 161%.

What about the % growth at 10 µM [16] of the same molecule?
Its % growth at 10 µM is 112%.

What about the activity at 10 µM [17] of the same molecule?
The activity at 10 µM was 101%.

And the activity at 10 µM [18]?
Its activity at 10 µM is 102%.

And the % growth at 10 µM [19]?
The % growth at 10 µM was 104%.

What about the % growth at 10 µM [20] of the same molecule?
The % growth at 10 µM was 110%.

And the % growth at 10 µM [21]?
The % growth at 10 µM was 107%.

What about the activity at 10 µM [22] of the same molecule?
Its activity at 10 µM is 101%.

What about the % cell growth at 10 µM [23] of the same molecule?
The % cell growth at 10 µM was 104%.

What about the % growth at 10 µM [24] of the same molecule?
Its % growth at 10 µM is 101%.

And the activity at 10 µM [25]?
Its activity at 10 µM is 99.4%.

What about the % growth at 10 µM [26] of the same molecule?
Its % growth at 10 µM is 114%.

And the % growth at 10 µM [27]?
The % growth at 10 µM was 112%.

What about the activity at 10 µM [28] of the same molecule?
The activity at 10 µM was 98.6%.

And the % growth at 10 µM [29]?
Its % growth at 10 µM is 98.6%.

And the % growth at 10 µM [30]?
Its % growth at 10 µM is 98.9%.

And the activity at 10 µM [31]?
The activity at 10 µM was 101%.

And the % growth at 10 µM [32]?
The % growth at 10 µM was 107%.

What about the % cell growth at 10 µM [33] of the same molecule?
The % cell growth at 10 µM was 104%.

What about the activity at 10 µM [34] of the same molecule?
The activity at 10 µM was 101%.

And the percent cell growth at 10 µM [35]?
The percent cell growth at 10 µM was 109%.

And the % growth at 10 µM [36]?
The % growth at 10 µM was 94%.

What about the activity at 10 µM [37] of the same molecule?
The activity at 10 µM was 102%.

And the % growth at 10 µM [38]?
The % growth at 10 µM was 110%.

What about the % growth at 10 µM [39] of the same molecule?
Its % growth at 10 µM is 102%.

What about the percent cell growth at 10 µM [40] of the same molecule?
The percent cell growth at 10 µM was 104%.

And the % growth of cells at 10 µM [41]?
Its % growth of cells at 10 µM is 113%.

And the cell growth percent at 10 µM [42]?
Its cell growth percent at 10 µM is 102%.

And the % growth at 10 µM [43]?
Its % growth at 10 µM is 124%.

What about the % growth at 10 µM [44] of the same molecule?
The % growth at 10 µM was 103%.

And the % growth at 10 µM [45]?
The % growth at 10 µM was 118%.

And the % growth at 10 µM [46]?
The % growth at 10 µM was 105%.

And the % growth at 10 µM [47]?
Its % growth at 10 µM is 99.6%.

What about the % growth at 10 µM [48] of the same molecule?
The % growth at 10 µM was 102%.

What about the % cell growth at 10 µM [49] of the same molecule?
The % cell growth at 10 µM was 115%.

And the % cell growth at 10 µM [50]?
The % cell growth at 10 µM was 69.9%.

What about the percent cell growth at 10 µM [51] of the same molecule?
The percent cell growth at 10 µM was 91%.

What about the % growth at 10 µM [52] of the same molecule?
The % growth at 10 µM was 109%.

What about the activity at 10 µM [53] of the same molecule?
Its activity at 10 µM is 93.9%.

What about the % growth at 10 µM [54] of the same molecule?
The % growth at 10 µM was 102%.

What about the activity at 10 µM [55] of the same molecule?
The activity at 10 µM was 108%.

What about the % cell growth at 10 µM [56] of the same molecule?
The % cell growth at 10 µM was 107%.

What about the activity at 10 µM [57] of the same molecule?
The activity at 10 µM was 97.5%.

What about the percent cell growth at 10 µM [58] of the same molecule?
The percent cell growth at 10 µM was 111%.

What about the activity at 10 µM ([59]; Homo sapiens, 60 cell, 48 h, read-out: Mean % growth) of the same molecule?
The activity at 10 µM was 104%.

What about the “activity on all 60 cancer cell lines tested (in words)” value ([59]; one dose) of the same molecule?
Its value is “weak activity”.
